What is called AC50 is the concentration giving half of the maximal activity seen.

Results on 49 molecules are retold here after PubChem BioAssay AID623999 (Broad Institute, 2012).

This assay concerns the target Cyclin-dependent kinase 5 (Homo sapiens) + Cyclin-dependent kinase 5 activator 1 (Homo sapiens) (UniProt Q00535+Q15078). As to the kind of experiment: CDK5-p25 kinase inhibition, dose response, selectivity assay for GSK3beta inhibitor project, biochemical, ADP-Glo luminescence, dry powder samples (AID 623999). The conditions noted are these: histone H1 peptide; for activity change, negative = inhibition: at 46 µM (top of the series). Background: ADP-Glo turns the ADP formed in a reaction into a luminescent signal.

The structures appear in SMILES notation. Records with an inconclusive call do not appear. Calls of active or inactive are those of the source.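 The calls were made as follows: active = inhibition in every test run, with half-maximal concentration at most twice the top tested dose; inconclusive = the separate test runs disagree on their calls; inactive = every test run inactive, including opposite effects.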

Sequence of Cyclin-dependent kinase 5 (Homo sapiens) + Cyclin-dependent kinase 5 activator 1 (Homo sapiens) (Q00535 whole entry, looked up): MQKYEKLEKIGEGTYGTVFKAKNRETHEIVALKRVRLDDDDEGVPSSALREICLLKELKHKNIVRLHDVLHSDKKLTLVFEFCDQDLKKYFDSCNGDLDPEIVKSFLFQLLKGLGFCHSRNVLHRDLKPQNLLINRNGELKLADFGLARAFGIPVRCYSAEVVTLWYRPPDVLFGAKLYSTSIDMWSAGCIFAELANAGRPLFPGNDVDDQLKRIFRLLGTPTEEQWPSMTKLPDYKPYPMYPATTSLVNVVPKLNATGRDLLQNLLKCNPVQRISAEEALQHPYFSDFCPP
Sequence of Cyclin-dependent kinase 5 (Homo sapiens) + Cyclin-dependent kinase 5 activator 1 (Homo sapiens) (Q15078 whole entry, looked up): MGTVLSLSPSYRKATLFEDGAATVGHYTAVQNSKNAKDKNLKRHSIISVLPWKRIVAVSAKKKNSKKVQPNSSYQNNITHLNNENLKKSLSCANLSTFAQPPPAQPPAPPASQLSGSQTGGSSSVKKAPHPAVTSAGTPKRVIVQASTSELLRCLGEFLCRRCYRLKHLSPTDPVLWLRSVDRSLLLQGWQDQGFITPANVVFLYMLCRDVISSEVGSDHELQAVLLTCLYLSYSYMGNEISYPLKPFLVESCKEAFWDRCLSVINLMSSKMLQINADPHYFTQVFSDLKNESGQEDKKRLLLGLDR

Consider `Cc1ccccc1C1C2=C(CC(C)(C)CC2=O)Nc2n[nH]c(C)c21` (centres undefined), for which the AC50 was 16.5 µM.

Regarding `CC1(C)CC(=O)C2=C(C1)Nc1n[nH]c(C(F)(F)F)c1C2c1ccccc1F` (centres undefined), the AC50 was 47.2 µM.

In the case of `COc1ccccc1C1C2=C(CC3(CCCCC3)CC2=O)Nc2n[nH]c(C)c21` (centres undefined), the AC50 was 5.88 µM.

As to `COc1cccc(-c2nn(-c3ccccc3)cc2/C=N/O)c1`, the “activity change, negative = inhibition” value was “inactive”.

For `O/N=C/c1cn(-c2ccccc2)nc1-c1ccc(Cl)cc1`, the AC50 was 25.4 µM.

As for `CNC(=O)c1cn(-c2ccccc2)nc1-c1ccc(OC)cc1`, the “activity change, negative = inhibition” value was “inactive”.

On to `COc1ccccc1C1C(C(C)=O)=C(C)Nc2n[nH]c(C)c21` (centres undefined), for which the AC50 was 9.55 µM.

Regarding `CC(C)COc1ccc(-c2nn(-c3ccccc3)cc2/C=N/O)cc1`, the “activity change, negative = inhibition” value is “inactive”.

As for `COc1ccc(-c2nn(-c3ccccc3)cc2C(=O)N(C)C)cc1`, the “activity change, negative = inhibition” value was “inactive”.

For `CC1(C)CC(=O)C2=C(C1)Nc1n[nH]c(C(F)(F)F)c1C2c1cc(F)ccc1F` (centres undefined), the AC50 is 47.4 µM.

Turning to `Cc1[nH]nc2c1C(c1cccc(C#N)c1)C1=C(CC(C)(C)CC1=O)N2` (centres undefined), the AC50 was 6.81 µM.

Turning to `CN(C)Cc1cn(-c2ccccc2)nc1-c1ccccc1`, the “activity change, negative = inhibition” value was “inactive”.

In the case of `Cc1[nH]nc2c1C(c1ccccc1C#N)C1=C(CC(C)(C)CC1=O)N2` (centres undefined), the AC50 was 4.04 µM.

Regarding `CC1(C)CC(=O)/C(=C\c2cccc(F)c2C(F)(F)F)C(=Nc2cc(C(F)(F)F)[nH]n2)C1`, the “activity change, negative = inhibition” value is “inactive”.

In the case of `CC1(C)CC(=O)C2=C(C1)Nc1n[nH]c(C(F)(F)F)c1C2c1cc(F)ccc1C(F)(F)F` (centres undefined), the AC50 was 8.29 µM.

For `CC1(C)CC(=O)C2=C(C1)Nc1n[nH]c(C(F)(F)F)c1C2c1ccccc1` (centres undefined), the AC50 is 22.2 µM.

On to `Cc1[nH]nc2c1C(c1ccccc1Cl)C1=C(CC(C)(C)CC1=O)N2` (centres undefined), for which the AC50 is 5.1 µM.

Consider `Cc1[nH]nc2c1C(c1cccc(C(F)(F)F)c1)C1=C(CC(C)(C)CC1=O)N2` (centres undefined), for which the AC50 is 10.9 µM.

With `CC1(C)CC(=O)C2=C(C1)Nc1n[nH]c(C(F)(F)F)c1C2c1c(F)cccc1F` (centres undefined), the AC50 is 43 µM.

Regarding `COc1ccccc1C1C2=C(CCC(C)(C)C2=O)Nc2n[nH]c(C)c21` (centres undefined), the AC50 was 10.1 µM.

As for `Cc1[nH]nc2c1C(c1cccc3nonc13)C1=C(CC(C)(C)CC1=O)N2` (centres undefined), the AC50 is 2.57 µM.

`Cc1[nH]nc2c1C(c1ccc(C(F)(F)F)cc1)C1=C(CC(C)(C)CC1=O)N2` (centres undefined): the “activity change, negative = inhibition” value was “inactive”.

Take `COc1ccccc1/C=C1\C(=O)CC(C)(C)CC1=Nc1cc(C(F)(F)F)[nH]n1`: the “activity change, negative = inhibition” value is “inactive”.

Regarding `CCc1[nH]nc2c1C(c1ccccc1OC)C1=C(CC(C)(C)CC1=O)N2` (centres undefined), the AC50 was 2.22 µM.

For the molecule `COc1ccccc1-c1c2c(nc3n[nH]c(C)c13)CCC2=O`, the AC50 was 34.6 µM.

Take `Cc1[nH]nc2c1C(C1CCCCC1)C1=C(CC(C)(C)CC1=O)N2` (centres undefined): the “activity change, negative = inhibition” value is “inactive”.

As for `Cc1cccc(C2C3=C(CC(C)(C)CC3=O)Nc3n[nH]c(C)c32)c1` (centres undefined), the AC50 was 39.7 µM.

`COc1ccccc1C1C2=C(CC(C)(C)CC2=O)Nc2n[nH]c(C(C)(C)C)c21` (centres undefined): the “activity change, negative = inhibition” value is “inactive”.

As to `Cc1[nH]nc2c1C(C)(c1ccccc1)C1=C(CC(C)(C)CC1=O)N2` (centres undefined), the AC50 was 14.5 µM.

As for `Cc1[nH]nc2c1C(c1ccccc1C(F)(F)F)C1=C(CC(C)(C)CC1=O)N2` (centres undefined), the AC50 was 0.841 µM.

In the case of `COc1ccc(-c2nn(-c3ccccc3)cc2C(=O)O)cc1`, the “activity change, negative = inhibition” value is “inactive”.

In the case of `O/N=C/c1cn(-c2ccccc2)nc1-c1ccc(F)cc1`, the “activity change, negative = inhibition” value is “inactive”.

For `Cc1[nH]nc2nc3c(cc12)C(=O)CC(C)(C)C3`, the “activity change, negative = inhibition” value is “inactive”.

On to `O=S(=O)(Nc1ccccn1)c1ccc(N=Cc2c(O)[nH]c3ccc4ncsc4c23)cc1`, for which the AC50 is 0.418 µM.

Consider `CSc1ccccc1C1C2=C(CC(C)(C)CC2=O)Nc2n[nH]c(C)c21` (centres undefined), for which the AC50 is 3.98 µM.

Turning to `Cc1[nH]nc2c1C(C)C1=C(CC(C)(C)CC1=O)N2` (centres undefined), the AC50 was 27.8 µM.

Turning to `CC1(C)CC(=O)C2=C(C1)Nc1n[nH]c(C(F)(F)F)c1C2c1cc(F)ccc1OC(F)(F)F` (centres undefined), the half-maximal activity concentration (AC50) was 32.6 µM.

As to `Cc1[nH]nc2c1[C@@H](c1ccccc1C(F)(F)F)C1=C(CC(C)(C)CC1=O)N2`, the AC50 was 0.461 µM.

As to `CC1(C)CC(=O)C2=C(C1)Nc1n[nH]c(C(F)(F)F)c1C2c1ccc(F)cc1C(F)(F)F` (centres undefined), the AC50 was 22.4 µM.

As for `O/N=C/c1cn(-c2ccccc2)nc1-c1ccccc1`, the “activity change, negative = inhibition” value is “inactive”.

On to `Cc1[nH]nc2c1C(c1ccc(C#N)cc1)C1=C(CC(C)(C)CC1=O)N2` (centres undefined), for which the “activity change, negative = inhibition” value was “inactive”.

Regarding `COc1ccccc1C1C2=C(CC(C)(C)CC2=O)Nc2[nH]ncc21` (centres undefined), the AC50 is 5.82 µM.

As to `COc1ccc(-c2nn(-c3ccccc3)cc2CO)cc1`, the “activity change, negative = inhibition” value is “inactive”.

As for `COc1ccccc1C1C2=C(CC(C)(C)CC2=O)Nc2n[nH]c(C(C)C)c21` (centres undefined), the AC50 was 4.84 µM.

As for `CC1(C)CC(=O)/C(=C\c2ccccc2C(F)(F)F)C(=Nc2cc(C(F)(F)F)[nH]n2)C1`, the “activity change, negative = inhibition” value is “inactive”.

In the case of `CC(C)c1ccc(-c2nn(-c3ccccc3)cc2/C=N/O)cc1`, the “activity change, negative = inhibition” value was “inactive”.

As for `COc1ccccc1C1C2=C(CCCC2=O)Nc2n[nH]c(C)c21` (centres undefined), the AC50 is 15.1 µM.

`COc1ccccc1C1C2=C(CC(C)(C)CC2=O)Nc2onc(C)c21` (centres undefined): the “activity change, negative = inhibition” value is “inactive”.

Regarding `COc1ccccc1[C@H]1C2=C(CC(C)(C)CC2=O)Nc2n[nH]c(C(F)(F)F)c21`, the “activity change, negative = inhibition” value was “inactive”.
